# From patent US20060069132A1, “Azolecarboxamide herbicides” (priority 2004, published 2006)
# Like-named read-outs stand apart in the source and are kept apart here.
# How the values were obtained:
# [1] = tested on: common (oilseed) sunflower; assay: Test C pre-/postemergence herbicide test; format: in vivo, Helianthus annuus; settings: preemergence; for Plant response rating (0 = no effect, 100 = complete control), Sunflower: 125 g ai/ha
# Excerpt: Seeds of plant species selected from bermudagrass (Cynodon dactylon (L.) Pers.), Surinam grass (Urochloa decumbens (Staph) R. D. Webster, previously named Brachiaria decumbens Stapf), cocklebur (Xanthium strumarium L.), corn (Zea mays L.), large crabgrass (Digitaria sanguinalis (L.) Scop.), woolly cupgrass (Eriochloa villosa (Thunb.) Kunth), giant foxtail (Setaria faberi Herrm.), goosegrass (Eleusine indica (L.) Gaertn.), johnsongrass (Sorghum halepense (L.) Pers.), kochia (Kochia scoparia (L.) Schrad.), lambsquarters (Chenopodium album L.), morningglory (Ipomoea coccinea L.), eastern black nightshade (Solanum ptycanthum Dunal), yellow nutsedge (Cyperus esculentus L.), pigweed (Amaranthus retroflexus L.), common ragweed (Ambrosia elatior L.), soybean (Glycine max (L.) Merr.), common (oilseed) sunflower (Helianthus annuus L.) and velvetleaf (Abutilon theophrasti Medik.) were planted and treated preemergence with test chemicals formulated in a non-phytotoxic solvent mixture which included a surfactant.
# At the same time, plants selected from these crop and weed species and also winter barley (Hordeum vulgare L.), blackgrass (Alopecurus myosuroides Huds.), canarygrass (Phalaris minor Retz.), chickweed (Stellaria media (L.) Vill.), downy bromegrass (Bromus tectorum L.), green foxtail (Setaria viridis (L.) Beauv.), Italian ryegrass (Lolium multiflorum Lam.), wheat (Triticum aestivum L.), wild oat (Avenafatua L.) and windgrass (Apera spica-venti (L.) Beauv.) were treated with postemergence applications of some of the test chemicals formulated in the same manner. Plants ranged in height from 2 to 18 cm (1- to 4-leaf stage) for postemergence treatments. Plant species in the flooded paddy test consisted of rice (Oryza sativa), smallflower umbrella sedge (Cyperus difformis L.), ducksalad (Heteranthera limosa (Sw.) Willd.) and barnyardgrass (Echinochloa crus-galli (L.) Beauv.) grown to the 2-leaf stage for testing. Treated plants and controls were maintained in a greenhouse for 12 to 14 days, after which time all species were compared to controls and visually evaluated. Plant response ratings, summarized in Table C, are based on a scale of 0 to 100 where 0 is no effect and 100 is complete control. A dash (-) response means no test result.
# velvetleaf = assay: Test C pre-/postemergence herbicide test; format: in vivo, Abutilon theophrasti; settings: for Plant response rating, Velvetleaf / Plant response rating (0 = no effect, 100 = complete control), Velvetleaf: preemergence
# In short: (§1)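 Preemergence: seeds planted and treated with compound in non-phytotoxic solvent with surfactant; postemergence: plants at 2 to 18 cm (1- to 4-leaf stage) sprayed likewise. Kept in greenhouse 12 to 14 days, then visually rated against controls, 0 (no effect) to 100 (complete control).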
# goosegrass = assay: Test C pre-/postemergence herbicide test; format: in vivo, Eleusine indica; settings: for Plant response rating, Goosegrass / Plant response rating (0 = no effect, 100 = complete control), Goosegrass: preemergence
# In short: as §1
# pigweed = assay: Test C pre-/postemergence herbicide test; format: in vivo, Amaranthus retroflexus; settings: for Plant response rating, Pigweed / Plant response rating (0 = no effect, 100 = complete control), Pigweed: preemergence
# In short: as §1
# large crabgrass [2] = assay: Test C pre-/postemergence herbicide test; format: in vivo, Digitaria sanguinalis; settings: for Plant response rating, Crabgrass, Large / Plant response rating (0 = no effect, 100 = complete control), Crabgrass, Large: preemergence
# In short: as §1
# large crabgrass [3] = assay: Test A pre-/postemergence herbicide test; format: in vivo, Digitaria sanguinalis; settings: Digitaria sanguinalis, 240 h; for pest or weed control at 500 g/ha: 500 g ai/ha; for pest or weed control at 2000 g/ha: 2000 g ai/ha
# In short: (§2)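 Sandy loam soil given preemergence directed spray; plants at 2 to 10 cm, one- to two-leaf stage, sprayed to runoff postemergence, compounds in non-phytotoxic solvent with surfactant. Injury rated visually versus untreated controls after about ten greenhouse days, 0 (no effect) to 100 (complete control); dash means not tested.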
# rice = assay: Test B pre-/postemergence herbicide test; format: in vivo, Oryza sativa; settings: Oryza sativa, pre-emergence, 336 h; preemergence, 125 g ai/ha; 0 to 100 scale, 0 is no effect, 100 is complete control; read-out: Plant response rating, Rice
# In short: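 Visual rating, 0 (no effect) to 100 (complete control), versus untreated controls after 13–15 d in greenhouse. Pre- and postemergence applications (postemergence plants 2–18 cm, 1–4 leaves); flooded paddy arm at 2-leaf stage. Compounds in non-phytotoxic solvent plus surfactant.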
# redroot pigweed = assay: Test A pre-/postemergence herbicide test; format: in vivo, Amaranthus retroflexus; settings: Amaranthus retroflexus, 240 h; for pest or weed control at 500 g/ha: 500 g ai/ha; for pest or weed control at 2000 g/ha: 2000 g ai/ha
# In short: as §2
# [4] = 500 g ai/ha, scale 0 to 100 (0 no effect, 100 complete control), visual, 12 to 14 days
# [5] = post-emergence, Postemergence, 0 to 100 scale, 0 no effect, 100 complete control, read-out: Plant response rating, Crabgrass, Large
# [6] = post-emergence, Postemergence, 0 to 100 scale, 0 no effect, 100 complete control, read-out: Plant response rating, Pigweed
# [7] = Postemergence, 500 g ai/ha, scale 0 to 100
structure (smiles),measurement,setting,value
CCNC(=S)c1cccc(NC(=O)c2nn(C(C)(C)C)nc2C)c1 [Compound 420],"Plant response rating, Sunflower","[1]; 62 g ai/ha, scale 0 to 100",0
same,"Plant response rating (0 = no effect, 100 = complete control), Sunflower",[1],0
same,"Plant response rating, Sunflower",[1]; [4],65
same,"Plant response rating, Velvetleaf","velvetleaf; 62 g ai/ha, scale 0 to 100",80
same,"Plant response rating (0 = no effect, 100 = complete control), Velvetleaf",velvetleaf; 125 g ai/ha,100
same,"Plant response rating, Velvetleaf",velvetleaf; [4],100
same,"Plant response rating, Goosegrass","goosegrass; 62 g ai/ha, scale 0 to 100",95
same,"Plant response rating (0 = no effect, 100 = complete control), Goosegrass",goosegrass; 125 g ai/ha,95
same,"Plant response rating, Goosegrass","goosegrass; 250 g ai/ha, scale 0-100",100
same,"Plant response rating, Goosegrass",goosegrass; [4],100
same,"Plant response rating, Pigweed","pigweed; 62 g ai/ha, scale 0 to 100",100
same,"Plant response rating (0 = no effect, 100 = complete control), Pigweed",pigweed; 125 g ai/ha,100
same,"Plant response rating, Pigweed",pigweed; [4],100
same,"Plant response rating, Crabgrass, Large","large crabgrass [2]; 62 g ai/ha, scale 0 to 100",100
same,"Plant response rating (0 = no effect, 100 = complete control), Crabgrass, Large",large crabgrass [2]; 125 g ai/ha,100
same,"Plant response rating, Crabgrass, Large","large crabgrass [2]; 250 g ai/ha, scale 0-100",100
same,"Plant response rating, Crabgrass, Large",large crabgrass [2]; [4],100
"CCn1nc(C(C)(C)C)cc1C(=O)Nc1cccc(C(=O)OCCF)c1 [Compound 82, 2-fluoroethyl 3-[[[3-(1,1-dimethylethyl)-1-ethyl-1H-pyrazol-5-yl]-carbonyl]amino]benzoate]",pest or weed control at 500 g/ha,large crabgrass [3]; [5],20%
same,pest or weed control at 2000 g/ha,large crabgrass [3]; [5],30%
same,pest or weed control at 500 g/ha,"large crabgrass [3]; pre-emergence, Preemergence, visual rating, 0 to 100 scale (0 no effect, 100 complete control), read-out: Crabgrass, Large plant response rating",0%
same,pest or weed control at 2000 g/ha,"large crabgrass [3]; pre-emergence, Preemergence, 0 to 100 scale, 0 no effect, 100 complete control, read-out: Crabgrass, Large plant response rating",0%
same,plant injury at 125 g/ha,rice,0%
same,pest or weed control at 500 g/ha,redroot pigweed; [6],50%
same,pest or weed control at 2000 g/ha,redroot pigweed; [6],50%
same,pest or weed control at 500 g/ha,"redroot pigweed; pre-emergence, Preemergence, visual rating, 0 to 100 scale (0 no effect, 100 complete control), read-out: Pigweed plant response rating",5%
same,pest or weed control at 2000 g/ha,"redroot pigweed; pre-emergence, Preemergence, 0 to 100 scale, 0 no effect, 100 complete control, read-out: Pigweed plant response rating",35%
same,pest or weed control at 250 g/ha,"velvetleaf; Abutilon theophrasti, post-emergence, Postemergence, 250 g ai/ha, scale 0 to 100, 0 no effect, 100 complete control, read-out: Plant response rating, Velvetleaf",70%
same,pest or weed control at 125 g/ha,"velvetleaf; Abutilon theophrasti, post-emergence, postemergence, 125 g ai/ha, scale 0 to 100, read-out: Plant response rating, Velvetleaf",10%
same,pest or weed control at 62 g/ha,"velvetleaf; Abutilon theophrasti, post-emergence, postemergence, 62 g ai/ha, scale 0 to 100, read-out: Plant response rating, Velvetleaf",5%
same,Velvetleaf plant response rating,velvetleaf; [7],75
same,pest or weed control at 250 g/ha,"goosegrass; Eleusine indica, post-emergence, 312 h, Postemergence, 250 g ai/ha, scale 0 to 100, 0 no effect, 100 complete control, read-out: Plant response rating, Goosegrass",10%
same,pest or weed control at 125 g/ha,"goosegrass; Eleusine indica, post-emergence, 312 h, postemergence, 125 g ai/ha, scale 0 to 100, read-out: Plant response rating, Goosegrass",10%
same,pest or weed control at 62 g/ha,"goosegrass; Eleusine indica, post-emergence, 312 h, postemergence, 62 g ai/ha, scale 0 to 100, read-out: Plant response rating, Goosegrass",0%
same,Goosegrass plant response rating,goosegrass; [7],10
same,pest or weed control at 250 g/ha,"pigweed; Amaranthus retroflexus, post-emergence, Postemergence, 250 g ai/ha, scale 0 to 100, 0 no effect, 100 complete control, read-out: Plant response rating, Pigweed",100%
same,pest or weed control at 125 g/ha,"pigweed; Amaranthus retroflexus, post-emergence, postemergence, 125 g ai/ha, scale 0 to 100, read-out: Plant response rating, Pigweed",100%
same,pest or weed control at 62 g/ha,"pigweed; Amaranthus retroflexus, post-emergence, postemergence, 62 g ai/ha, scale 0 to 100, read-out: Plant response rating, Pigweed",85%
same,Pigweed plant response rating,pigweed; [7],100
same,pest or weed control at 250 g/ha,"large crabgrass [2]; Digitaria sanguinalis, post-emergence, 312 h, Postemergence, 250 g ai/ha, scale 0 to 100, 0 no effect, 100 complete control, read-out: Plant response rating, Crabgrass, Large",0%
same,pest or weed control at 125 g/ha,"large crabgrass [2]; Digitaria sanguinalis, post-emergence, 312 h, postemergence, 125 g ai/ha, scale 0 to 100, read-out: Plant response rating, Crabgrass, Large",0%
same,pest or weed control at 62 g/ha,"large crabgrass [2]; Digitaria sanguinalis, post-emergence, 312 h, postemergence, 62 g ai/ha, scale 0 to 100, read-out: Plant response rating, Crabgrass, Large",0%
same,"Crabgrass, Large plant response rating",large crabgrass [2]; [7],60
CCc1nn(C(C)C)nc1C(=O)Nc1cccc(C(=S)N(C)C)c1 [Compound 409],"Plant response rating, Sunflower","[1]; 62 g ai/ha, scale 0 to 100",0
same,"Plant response rating (0 = no effect, 100 = complete control), Sunflower",[1],5
same,"Plant response rating, Sunflower",[1]; [4],55
same,"Plant response rating, Velvetleaf","velvetleaf; 62 g ai/ha, scale 0 to 100",5
same,"Plant response rating (0 = no effect, 100 = complete control), Velvetleaf",velvetleaf; 125 g ai/ha,30
same,"Plant response rating, Velvetleaf",velvetleaf; [4],100
same,"Plant response rating, Goosegrass","goosegrass; 62 g ai/ha, scale 0 to 100",80
same,"Plant response rating (0 = no effect, 100 = complete control), Goosegrass",goosegrass; 125 g ai/ha,90
same,"Plant response rating, Goosegrass","goosegrass; 250 g ai/ha, scale 0-100",95
same,"Plant response rating, Goosegrass",goosegrass; [4],95
same,"Plant response rating, Pigweed","pigweed; 62 g ai/ha, scale 0 to 100",100
same,"Plant response rating, Pigweed",pigweed; [4],100
same,"Plant response rating, Crabgrass, Large","large crabgrass [2]; 62 g ai/ha, scale 0 to 100",85
same,"Plant response rating (0 = no effect, 100 = complete control), Crabgrass, Large",large crabgrass [2]; 125 g ai/ha,95
same,"Plant response rating, Crabgrass, Large","large crabgrass [2]; 250 g ai/ha, scale 0-100",95
same,"Plant response rating, Crabgrass, Large",large crabgrass [2]; [4],95
Cc1nn(C(C)(C)C)nc1C(=O)Nc1cccc(C(=S)N(C)C)c1 [Compound 419],"Plant response rating, Sunflower","[1]; 62 g ai/ha, scale 0 to 100",0
same,"Plant response rating (0 = no effect, 100 = complete control), Sunflower",[1],0
same,"Plant response rating, Sunflower",[1]; [4],95
same,"Plant response rating, Velvetleaf","velvetleaf; 62 g ai/ha, scale 0 to 100",100
same,"Plant response rating (0 = no effect, 100 = complete control), Velvetleaf",velvetleaf; 125 g ai/ha,100
same,"Plant response rating, Velvetleaf",velvetleaf; [4],100
same,"Plant response rating, Goosegrass","goosegrass; 62 g ai/ha, scale 0 to 100",45
same,"Plant response rating (0 = no effect, 100 = complete control), Goosegrass",goosegrass; 125 g ai/ha,95
same,"Plant response rating, Goosegrass","goosegrass; 250 g ai/ha, scale 0-100",100
same,"Plant response rating, Goosegrass",goosegrass; [4],100
same,"Plant response rating, Pigweed","pigweed; 62 g ai/ha, scale 0 to 100",100
same,"Plant response rating (0 = no effect, 100 = complete control), Pigweed",pigweed; 125 g ai/ha,100
same,"Plant response rating, Pigweed",pigweed; [4],100
same,"Plant response rating, Crabgrass, Large","large crabgrass [2]; 62 g ai/ha, scale 0 to 100",100
same,"Plant response rating (0 = no effect, 100 = complete control), Crabgrass, Large",large crabgrass [2]; 125 g ai/ha,100
same,"Plant response rating, Crabgrass, Large","large crabgrass [2]; 250 g ai/ha, scale 0-100",100
same,"Plant response rating, Crabgrass, Large",large crabgrass [2]; [4],100
